Source: patent US7205261B2, “Use of certain N-acylethanolamines to achieve ethylene- and cytokinin-like effects in plants and fungi” (Nutra-Park, Inc., priority 2002, dated 2007)
Like-named read-outs stand apart in the source and are kept apart here.

How the values were obtained:
[1] = system: Raphanus sativus L. cv. Cherry Belle cotyledons; assay: Radish cotyledon bioassay (expansion growth and chlorophyll accumulation); format: in vivo; conditions: for Change in fresh weight: continuous illumination, 25° C., ten cotyledons; for activity at 20 µg/mL: Raphanus sativus, read-out: Change in fresh weight, % of control
Description: Radish cotyledon bioassay: This bioassay using Raphanus sativus L. cv. Cherry Belle cotyledons was developed by Letham, DS (Physiologia Plantarum 25, 391–396, 1971, incorporated by reference in its entirety) to evaluate the efficacy of cytokinin on cell enlargement. Success using this assay is not restricted to radish. […] In addition to their effect on cell division, cytokinin plays a major role in driving cell enlargement. Compounds in this class of phytohormone and with cytokinin activity also help maintain photosynthetic activity and productivity and abolish proteolytic activity. In cotyledon leaf systems, a requirement for cytokinin is critical and removal of the roots (i.e. the presumed source of cytokinin) renders the cotyledon leaves unable to expand. Exposure to cytokinin (0.02–22 μg/ml) results in a dramatic increase in fresh weight of cotyledons within 72 hours. This effect is not observed with either gibberellin or auxin and is usually delayed or inhibited by abscisic acid and the ethylene precursor, 1-aminocyclopropane-1-carboxylic acid (ACC). […] Thus, the mode of action of cytokinin in this system appears to be similar to that of indole-3-acetic acid (IAA) in auxin-induced stem elongation, a process that depends on an increase in the mechanical extensibility of the cell wall. However, cytokinin antagonizes IAA-mediated cell elongation and appears to do so by promoting ethylene production. Furthermore, cytokinin-induced cell expansion is not usually accompanied by proton (H^+) extrusion and no change in plasma membrane ATPase activity is evident.
Seeds of Raphanus sativus L. cv. Cherry-Belle were germinated in darkness at 24° C. for 36 h in Petri dishes containing filter paper wetted with distilled water. The smaller of the two cotyledons was excised, the fresh weight determined, and 10 cotyledons placed adaxial side down on filter paper in Petri dishes containing 10 ml of KPO4 buffer (2 mM, pH 6.0) and the compounds to be tested at 20 mg/l. […] Chlorophyll content was determined after extraction of tissue into 80% ethanol (containing butylated hydroxytoluene (BHT) 10 mg/l) using the equations Chl a=(13.95A663)−(6.88A647) and Chl b=(24.96A652)−(7.32A663) as described by Lichtenthaler, HK, Methods in Enzymology 148: 350–382, 1987, incorporated by reference in its entirety. FIG. 6 illustrates the difference in cotyledon size in response to the cytokinin kinetin.

maize roots = assay: Corn root bioassay (ethylene production by maize roots); format: in vivo, Zea mays L.; conditions: 20 mg/l; for activity at 20 µg/mL: Zea mays, read-out: Ethylene, % of control
Protocol: Corn root bioassay: It is well established that roots of Zea mays produce ethylene when exposed to a variety of stresses (for review, see Morgan, PW and Drew, MC, Physiologia Plantarum 100: 620–630, 1997). Mechanical impedance and hypoxia both induce ethylene formation and usually as early as 1 hour after exposure. In response to ethylene treatment, maize roots show decreased expansion and elongation, a high incidence of cell death and the formation of aerenchyma tissue—particularly evident when roots are exposed to hypoxic conditions (Drew, MC et al., Trends in Plant Science 5: 123–127, 2000, Morgan and Drew 1997).
Seeds of Zea mays L. were sown in flats of Perlite, covered with a layer of vermiculite, and irrigated daily with water and/or 1/10 Hoagland solution. Seedlings were cultivated under continuous illumination at 22–25° C. and used when 7 d old. Seedlings were removed from the Perlite and washed under running tap water. Seedlings were allowed to acclimate in water and/or 1/10 Hoagland solution for several hours before being transferred to Falcon tubes containing the test compounds (all 20 mg/l) prepared in 1/10 Hoagland solution. […] Roots were then transferred to gas-tight tubes each containing 200 μl of water. The tubes were sealed and incubated at 26° C. for 1–2 h in darkness before gas samples were drawn from the incubation tubes using a 1 ml syringe and assayed by gas chromatography (Romera, FJ et al. (1999) Annals of Botany 83, 51–55).

[2] = system: tomato variety FL47 mature green tomatoes; assay: Tomato bioassay (spray application or vacuum infiltration of harvested mature green tomatoes, ripening judged by colour); format: in vivo; conditions: 5 to 7 days after treatment, FIGS. 2-5
Protocol: Tomato bioassay: NAE solutions containing 20 ppm or 500 ppm of NAE were used to treat harvested tomatoes as described below. The solutions were prepared by dispersing a solid NAE compound in water through sonication.
Egg LPE was purchased from Avanti Polar Lipids (Alabaster, Ala.). Egg LPE solutions containing 20 ppm or 500 ppm LPE were used as positive controls in the assays described below. The solutions were prepared by dispersing LPE into water through sonication or aggressive agitation.
The tomatoes used in this study were tomato variety FL47 (cultivar), 6×6 mature green tomatoes of good quality MG3–4 ([…]: no apparent external change from green to pink). The tomatoes were purchased from West Coast Tomato (Palmetto, Fla.) and Dimare Tomato (Homestead, Fla.).
The system used for classifying tomato mature stages is as the follows: Green (Stage 1)—“Green” means that the surface of the tomato is completely green in color. The shade of green may vary from light to dark. Breakers (Stage 2)—“Breakers” means there is a definite “break” in color from green, to tannish-yellow, pink or red on not more than 10% of the surface. […] Red (R) (Stage 6)—“Red” means that more than 90% of the surface, in the aggregate, is red.
Locules contain hard, white substance. […] Seeds are forming and are white. […] Seeds are fully formed and are turning from white to beige. MG4-Fruit are softening a little but still completely green on the outside. Inside locular gel is completely formed with hints of pink coloration in the columella tissue. Seeds are dark beige to light brown.
In spray application bioassays, the tomatoes were placed in 100° F. water for 90 seconds, after which the tomatoes were removed from water and placed stem scar up onto a sheet of plastic. An NAE solution or LPE solution was sprayed onto the tomatoes at 30 psi using a flat fan tip situated approximately 8 to 10 inches above the tomatoes. The tomatoes were air dried and placed on a sheet of white paper with stem scar down under consistent environmental conditions. Five to seven days later, the ripening of the tomatoes were determined by visual observation of the color of the tomatoes.
In vacuum infiltration bioassay, each tomato was placed on top of a vacuum bell jar platform with stem scar facing up. 0.5 ml of NAE solution or LPE solution was placed onto stem scar and the glass bell jar lid was lowered onto the jar platform. The vacuum was started and the air escaped from the interior of the tomato causing the NAE solution or the LPE solution on the stem scar to bubble. After a preset time period, the air inlet was opened slowly to release vacuum in the bell jar. […] Five to seven days later, the ripening of the tomatoes were determined by visual observation of the color of the tomatoes.

[3] = Table 3, 48 h incubation, 20 mg/l
[4] = summary statement in the description

SMILES	Chlorophyll a/b ([1]; Experiment 1, 20 mg/l, 72 h)	Change in fresh weight ([1]; Experiment 1, 20 mg/l, 72 h) [mg]	Chlorophyll (mg/g FW) a + b ([1]; Experiment 2, 20 mg/l, 48 h) [mg/g FW]	Chlorophyll (μg/cotyledon) a + b ([1]; Experiment 2, 20 mg/l, 48 h) [μg/cotyledon]	Chlorophyll a/b ([1]; Experiment 2, 20 mg/l, 48 h)	Change in fresh weight ([1]; Experiment 2, 20 mg/l, 48 h) [mg]	activity at 20 µg/mL ([1]; Experiment 1, 20 mg/l, 72 h) [%]	activity at 20 µg/mL ([1]; Experiment 2, 20 mg/l, 48 h) [%]	chlorophyll content per unit mass (in words) [1, 3]	chlorophyll per cotyledon (in words) [1, 3]	hormone-like activity with respect to expansion growth (in words) [1, 3]	cytokinin-like activities (summary of the examples) [1, 4]	ethylene-like activities (summary of the examples) [1, 4]	activity at 20 µg/mL (maize roots; experiment 1, 72 h) [%]	activity at 20 µg/mL (maize roots; experiment 2, 36 h) [%]	Ethylene (maize roots; experiment 2, 36 h illumination, roots incubated 2 h in darkness at 24° C.) [pmol/g FW/h]	number of ripened tomatoes compared to the control group ([2]; sprayed with 500 ppm)	number of ripened tomatoes compared to the control group ([2]; vacuum infiltrated with 20 ppm)
CCCCCCCCCC(=O)NCCO [NAE-10:0, N-Decanoyl-2-aminoethanol]	1.5	10.34 ± 3.28	1.41	22.57	1.8	11.56 ± 2.16	74	143	decreased chlorophyll content per unit mass	increased chlorophyll per cotyledon	cytokinin-like activity	cytokinin-like activities	ethylene-like activities	124	115	33.02 ± 9.63	higher number of ripened tomatoes	higher number of ripened tomatoes
CCCCCCCCCCCCCC(=O)NCCO [NAE-14:0, N-Tetradecanoyl-2-aminoethanol]			1.90	23.41	1.8	7.91 ± 1.34		98				cytokinin-like activities					higher number of ripened tomatoes	higher number of ripened tomatoes
